Experimental data reported in patent US6858434B1, “Method for synthesis, separation and screening of a plurality of compounds in the same bulk of a stationary phase” (Sinvent AS, priority 1999, dated 2005).

System: Serracia marcescens
Assay: agar overlay screening for antimicrobial activity on the TLC plate
Assay type: cell-based
Conditions: agar gel containing Serracia marcescens poured over the TLC plate, left overnight at room temperature

c1ccc(CN2CCCC2)cc1 [product]
antibacterial activity (white inhibition zones around the spot): antibacterial activity
